Test results taken from US20180251847A1, “METHOD OF PREDICTING THE TUMOR RESPONSE TO DNA METHYLATION INHIBITORS AND ALTERNATIVE THERAPEUTIC REGIMEN FOR OVERCOMING RESISTANCE” (PALACKY UNIVERSITY, OLOMOUC, priority 2014, published 2018).

Columns and labels:
R1.3 (HCT116-RDAC) = test: MTT based cell survival assay, DAC resistant HCT116 clone R1.3; set-up: species or system human
Protocol: (§1) The DAC resistant HCT116 cell lines were developed using two methods.
(§2) The method is primarily based on reduction of yellow colored tetrazolium salt, 3-(4,5-dimethylthiazol-2-yl)-2,5-diphenyltetrazolium bromide (MTT) to insoluble purple colored formazan crystals by NAD(P)H-dependent oxidoreductase enzymes in mitochondria of the viable cell.
(§3) Cells in 80 μL of medium were plated in each of the experimental and the control wells, followed by addition of 20 μL medium with five-fold drug concentration to experimental wells. The wells with medium alone were included alongside as blank for absorbance readings. After 72 h of drug treatment, 10 μL MTT (Sigma-Aldrich) prepared in 1×PBS (5 mg/mL) was added to all wells including blank and control, and incubated until the purple formazan crystals were visible after which 100 μL of detergent (10% SDS, pH: 5.5) was added and the plates were incubated overnight to solubilize the formazan and the cellular material.
(§4) Cross resistance was determined as the fold increase, whereas, the sensitivity was determined as the fold decrease in the IC50 of the drugs for the resistant cell lines compared to their genetically identical drug sensitive counterpart.

R2.2 (HCT116-RDAC) = test: MTT based cell survival assay, DAC resistant HCT116 clone R2.2; set-up: species or system human
Protocol: as §1, §2, §3, §4

HCT116-RDAC xenografts = test: Anti-tumor activity in xenografted mouse model, HCT116-RDAC (clone R1.4); type: in vivo, SCID mice; settings: HCT116-RDAC xenograft, DAC 2.5 mg/kg i.p., 10 doses, day 0-21
From the text: For in vivo validation of HCT116 resistance towards DAC and sensitivity of DAC resistant tumors to (+)-JQ1 treatment, we studied the anti-tumor activity of DAC and (+)-JQ1 in HCT116 parental versus a resistant cell clone R1.4 (HCT116_RDAC). Xenografts were established in 11-12 weeks-old female SCID mice, inoculated with 5×10^6 cells, s.c. on both sides of the chest. After 2 weeks, tumors were palpable (average tumor volume 20 mm^3) and mice were assigned into four groups (8 mice/group). Group I: vehicle control for DAC (10:90, DMSO: PBS) and Group II: DAC, 2.5 mg/kg by i.p. injection once a day for 14 days (5 days on, 2 days off), total 10 doses. […] Body weights of the animals were measured daily and tumor volume data were collected twice a week. […]
For determining the anti-tumor activity of the drugs, DAC and (+)-JQ1, tumor volume data for each group were transformed into relative tumor volumes followed by calculation of treatment to control ratio (T/C ratio) for each time point. […] Statistical significance of the data was determined by calculating bootstrap p-value, n=10000, one-sided test of H0: T/C ratio=1, H1: T/C ratio <1 (Jianrong Wu., Journal of Biopharmaceutical Statistics 2010; 20, 954-64). After day 21, statistical significance cannot be measured accurately due to decreased survival of animals in control group. […]

[1] = Homo sapiens, HCT-116, 72 h, read-out: Mean IC50

Compound: Nc1ncn([C@H]2C[C@H](O)[C@@H](CO)O2)c(=O)n1 [DAC, 2′-deoxy-5-azacytidine]
- IC50 (R1.3 (HCT116-RDAC); [1]): > 100 µM
- fold change (resistance index) (R1.3 (HCT116-RDAC); IC50 R1.3 / IC50 HCT116): (>357) fold
- IC50 (R2.2 (HCT116-RDAC); [1]): > 100 µM
- fold change (resistance index) (R2.2 (HCT116-RDAC); IC50 R2.2 / IC50 HCT116): (>357) fold
- fold effect (anti-tumor activity, aAUC of T/C ratio) (HCT116-RDAC xenografts): 1.3
